Key:
[1] = Test on Tang (high intensity sweetener HIS masking), evaluation by expert tasters; conditions: versus base
Method: In an orange flavoured Tang powdered soft drink (market product) sweetened with sucrose plus high intensity sweetener (aspartame and acesulfame-K) and containing citric acid, C18:2-gaba and C18:2-pro were tested.
All samples were evaluated by expert tasters. Tasters were asked to describe the samples focusing on authentic taste, masking off notes of high intensity sweetener, mouthfeel & body, enhancement, richness, juiciness, long lastingness, salivation, sweetness
Base is Orange flavoured Tang
Base: sweet, orange, licorice, and lingering high intensity sweetener off-notes, bitter, thin

[2] = Test on soy milk (soy protein masking), evaluation by expert tasters; conditions: 2 ppm in soy milk (1.8% fat), 5% sucrose, milk flavour 0.1%
Method: In a soy milk (1.8% fat) sweetened with 5% sucrose by weight, flavoured with a proprietary milk flavour at a dosage of 0.1%, C18:2-gaba was added at 2 ppm
Samples were evaluated by expert tasters. Tasters were asked to describe the samples focusing on authentic taste, masking of soy protein off notes, mouthfeel, fullness, salivation, sweetness, richness, long lastingness and fattiness.
Soy milk, 5% sucrose, milk flavor @ 0.1%: sweet, dry, green, soy bean taste

[3] = Test on liquid margarine (KCL masking), evaluation by expert tasters; conditions: 2 ppm in Blueband liquid margarine, 0.8% KCL, proprietary masking flavour 0.01%
Method: In Blueband liquid margarine (market product) with added KCL 0.8% and a proprietary masking flavour @ 0.01% 18:2 gaba was added at 2 ppm.
Samples were evaluated by expert tasters. Tasters were asked to describe the samples focusing on authentic taste, masking of KCL off notes, mouthfeel, saltiness, fullness, salivation, long lastingness and fattiness.
Base is Blueband, 0.8% KCL, proprietary masking @ 0.01%
Base: metallic, buttery, bitter and soapy

Structure (SMILES) | masking off notes of high intensity sweetener ([1]; 1 ppm in orange flavoured Tang (sucrose, aspartame, acesulfame-K, citric acid)) | taste description (enhancement, juiciness, authentic taste) ([1]; 1 ppm in orange flavoured Tang) | masking off notes of high intensity sweetener ([1]; 0.5 ppm in orange flavoured Tang (sucrose, aspartame, acesulfame-K, citric acid)) | taste description (enhancement, juiciness, mouthfeel) ([1]; 0.5 ppm in orange flavoured Tang) | masking of soy protein off notes [2] | taste description (richness, mouthfeel, fattiness) [2] | authentic taste [3] | masking of KCL off notes [3] | saltiness and mouthfeel [3]
CCCCC/C=C\C/C=C\CCCCCCCC(=O)N1CCC[C@H]1C(=O)O [C18:2-Pro, N-linoleoyl-Pro] | the off-notes of the high intensity sweetener were suppressed | the fresh, sweet juicy orange notes are enhanced, characteristic of authentic fresh orange fruit | – | – | – | – | – | – | –
CCCCC/C=C\C/C=C\CCCCCCCC(=O)NCCCC(=O)O [C18:2-gaba] | – | – | the off-notes of the high intensity sweetener were suppressed | the sweet juicy orange notes and mouthfeel are enhanced | good reduction of the undesirable soy bean off-taste | clean, rich, creamy and milky | more authentic butter | less metallic and bitter notes | more saltiness, more mouthfeel

From patent US10856563B2, “N-acyl-amino acid derivatives for improvement of the flavor profile of edible compositions” (Givaudan S.A., priority 2012, dated 2020)
